Among the data in BindingDB's records for doi:10.1021/jm00082a007 (J. Uriach & Cía., 1992) are IC50 values, retold here.

In the assay the target is Platelet-activating factor receptor (Oryctolagus cuniculus). Put plainly: In vitro inhibition of PAF induced aggregation of rabbit platelets.
`CC[n+]1ccccc1CN(C(C)=O)C(=O)OCC1COC(OCCCCCCOCCCCCc2ccccc2)C1` (stereo not given): the IC50 stood at 15 nM. That is a double-digit nanomolar value.
For `CC[n+]1ccccc1CN(C(C)=O)C(=O)OCC1COC(OCCCCCCCCCCCCCCCCOC)C1` (stereo not given) the value was 2.1 nM; for `CC[n+]1ccccc1CN(C(C)=O)C(=O)OCC1COC(OCCC(c2ccccc2)c2ccccc2)C1` (stereo not given), 260 nM.
For `CCCCCCCCCCCCCCCCCCCCOC1CC(COC(=O)N(Cc2cccc[n+]2CC)C(C)=O)CO1` (stereo not given) the value was 40 nM; for `CC[n+]1ccccc1CN(C(C)=O)C(=O)OCC1COC(OCCCc2ccccc2)C1` (stereo not given), 190 nM.
In the case of `CC[n+]1ccccc1CN(C(C)=O)C(=O)OCC1COC(OCCCCCCOCCCc2ccccc2)C1` (stereo not given) it was 51 nM.
With `CCCCCCCCCCCCCCCCOC1CC(COC(=O)N(Cc2cccc[n+]2CC)C(C)=O)CO1` (stereo not given), the IC50 amounted to 9.7 nM.
`CC[n+]1ccccc1CN(C(C)=O)C(=O)OCC1COC(OCCCCCCOCc2ccc(-c3ccccc3)cc2)C1` (stereo not given) registered an IC50 of 15 nM.
`C=CCCCCCCOCCCCCCOC1CC(COC(=O)N(Cc2cccc[n+]2CC)C(C)=O)CO1` (stereo not given) showed an IC50 of 25 nM.
Take `CCOC1CC(COC(=O)N(Cc2cccc[n+]2CC)C(C)=O)CO1` (stereo not given): the half-inhibitory concentration (IC50) stood at 2800 nM.

What is called IC50 is the midpoint of a concentration-inhibition curve. The low end stands for inhibition by little substance, the high end for a need for much substance.
